These are literature values, as cited in US20210213091A1, “LIPOPHILIC ACTIVE AGENT INFUSED TOBACCO LEAVES AND/OR TOBACCO MATERIALS AND METHODS OF USE THEREOF” (priority 2018, published 2021).

The structures appear in SMILES notation.

Take `CC1=CC[C@H]2C[C@@H]1C2(C)C` [α-Pinene, (1S,5S)-2,6,6-Trimethylbicyclo[3.1.1]hept-2-ene]: the human pulmonary uptake was 60%.
